Consider 21 compounds from US12595230B2, “Substituted 6,7-dihydro-5H-benzo[7]annulene compounds and their derivatives, processes for their preparation and therapeutic uses thereof” (Sanofi, priority 2020, dated 2026).

For the assay, the target named is T1, ERα (Homo sapiens, UniProt P03372).
T1 construct: host or cells: MCF7
T1 sequence (P03372 1-595): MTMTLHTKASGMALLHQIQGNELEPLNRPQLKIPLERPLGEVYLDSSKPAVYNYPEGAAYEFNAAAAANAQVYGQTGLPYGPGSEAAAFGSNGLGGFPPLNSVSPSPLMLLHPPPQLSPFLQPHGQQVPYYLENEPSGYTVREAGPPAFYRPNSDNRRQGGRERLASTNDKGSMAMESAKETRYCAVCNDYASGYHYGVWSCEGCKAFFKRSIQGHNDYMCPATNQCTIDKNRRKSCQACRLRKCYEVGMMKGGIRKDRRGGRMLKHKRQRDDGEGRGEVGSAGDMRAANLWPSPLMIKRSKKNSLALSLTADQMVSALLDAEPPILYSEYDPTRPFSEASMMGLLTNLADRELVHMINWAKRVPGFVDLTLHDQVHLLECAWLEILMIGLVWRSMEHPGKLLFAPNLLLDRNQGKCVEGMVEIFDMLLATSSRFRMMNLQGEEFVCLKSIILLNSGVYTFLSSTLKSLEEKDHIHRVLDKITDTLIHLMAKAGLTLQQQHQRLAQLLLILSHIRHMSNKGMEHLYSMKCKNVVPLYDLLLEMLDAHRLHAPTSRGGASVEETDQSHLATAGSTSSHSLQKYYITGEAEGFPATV
Put plainly: Estrogen receptor degradation activity: breast cancer cell ERα in cell western assay (MCF7 cells). The note with it: for % Degradation At 0.3 μM: 4 hours, relative to fulvestrant 0.1 μM positive control; for DC50: read-out: Degradation IC50. It is filed as cell-based. The procedure, abridged:
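Compounds were applied to MCF7 cells in stripped-serum, phenol red-free medium for 4 h at final 0.3–0.0000018 μM, with fulvestrant (0.1 μM) as control. Value: IC50 (nM) for 50% ERα degradation.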

[1] abbreviates: 4 hours post compound addition, concentration which degrades 50% of the estrogen receptor.

As to `O=C(O)c1ccc2c(c1)CCCC(c1cccc(CO)c1)=C2c1ccc(CC2CN(CCCF)C2)cc1` [Example 320, 9-(4-((1-(3-fluoropropyl)azetidin-3-yl)methyl)phenyl)-8-(3-(hydroxymethyl)phenyl)-6,7-dihydro-5H-benzo[7]annulene-3-carboxylic acid], the “% Degradation At 0.3 μM” value was 80%. For the same compound, the DC50 under setting [1] came to 110 nM.
The matching figures for `Cl.O=C(O)c1ccc2c(c1)CCCC(C1CCC(F)(F)CC1)=C2c1ccc(CC2CN(CCCF)C2)cc1` [Example 4, 8-(4,4-Difluorocyclohexyl)-9-(4-((1-(3-fluoropropyl)azetidin-3-yl)methyl)phenyl)-6,7-dihydro-5H-benzo[7]Annulene-3-carboxylic Acid Hydrochloride]: 85% and 0.9 nM.
Turning to `COC(c1ccc(C2=C(c3ccc(Cl)cc3Cl)CCCc3cc(C(=O)O)ccc32)cc1)C1CN(CCCF)C1` (single isomer, unassigned; isomer 2) [Example 228, 8-(2,4-dichlorophenyl)-9-(4-((1-(3-fluoropropyl)azetidin-3-yl)(methoxy)methyl)phenyl)-6,7-dihydro-5H-benzo[7]annulene-3-carboxylic Acid Isomer 2], the “% Degradation At 0.3 μM” value was 76%. Also, the DC50 under setting [1] came to 0.6 nM.
The matching figures for `O=C([O-])c1ccc2c(c1)CCCC(C1=C[C@@H]3CCC[C@@H]3C1)=C2c1ccc(CC2CN(CCCF)C2)cc1.[Na+]` (relative stereo) [Example 299, sodium 9-(4-((1-(3-fluoropropyl)azetidin-3-yl)methyl)phenyl)-8-(cis-1,3a,4,5,6,6a-hexahydropentalen-2-yl)-6,7-dihydro-5H-benzo[7]annulene-3-carboxylate]: 90% and 0.7 nM.
The matching figures for `O=C(O)c1ccc2c(c1)CCCC(c1cccc(Cl)c1Cl)=C2c1ccc(CC2CN(CCCF)C2)cc1` [Example 19, 8-(2,3-dichlorophenyl)-9-(4-((1-(3-fluoropropyl)azetidin-3-yl)methyl)phenyl)-6,7-dihydro-5H-benzo[7]annulene-3-carboxylic acid]: 91% and 0.3 nM.
With `Cc1cc(Cl)ccc1C1=C(c2ccc(CC3CN(CCCF)C3)cc2)c2ccc(C(=O)O)cc2CCC1` [Example 25, 8-(4-chloro-2-methylphenyl)-9-(4-((1-(3-fluoropropyl)azetidin-3-yl)methyl)phenyl)-6,7-dihydro-5H-benzo[7]annulene-3-carboxylic acid], the “% Degradation At 0.3 μM” value came out at 91%. The DC50 under setting [1] was determined as 0.3 nM.
The matching figures for `Cc1c(Cl)cccc1C1=C(c2ccc(CC3CN(CCC(F)(F)F)C3)cc2)c2ccc(C(=O)O)cc2CCC1` [Example 260, 8-(3-chloro-2-methylphenyl)-9-(4-((1-(3,3,3-trifluoropropyl)azetidin-3-yl)methyl)phenyl)-6,7-dihydro-5H-benzo[7]annulene-3-carboxylic acid]: 86% and 0.6 nM.
The matching figures for `Cl.[2H]C([2H])(CCF)N1CC(Cc2ccc(C3=C(c4ccc(Cl)cc4Cl)CCCc4cc(C(=O)O)ccc43)cc2)C1` [Example 208, 8-(2,4-dichlorophenyl)-9-(4-((1-(3-fluoropropyl-1,1-d2)azetidin-3-yl)methyl)phenyl)-6,7-dihydro-5H-benzo[7]annulene-3-carboxylic acid hydrochloride]: 95% and 0.2 nM.
`CC1CCc2cc(C(=O)O)ccc2C(c2ccc(CC3CN(CCCF)C3)cc2)=C1c1cccc(C(F)(F)F)c1` (racemic) [Example 333, 9-(4-((1-(3-fluoropropyl)azetidin-3-yl)methyl)phenyl)-7-methyl-8-(3-(trifluoromethyl)phenyl)-6,7-dihydro-5H-benzo[7]annulene-3-carboxylic acid]: the “% Degradation At 0.3 μM” value worked out at 87%. In addition, the DC50 under setting [1] stood at 0.4 nM.
For `O=C(O)c1ccc2c(c1)CCCC(c1ccccc1Cl)=C2c1ccc(CC2CN(CCCF)C2)cn1` [Example 252, 8-(2-chlorophenyl)-9-(5-((1-(3-fluoropropyl)azetidin-3-yl)methyl)pyridin-2-yl)-6,7-dihydro-5H-benzo[7]annulene-3-carboxylic Acid] the same measures were 67% and 48.6 nM.
For `O=C(O)c1ccc2c(c1)CCCC(c1ccccc1C(F)(F)F)=C2c1ccc(CC2(F)CN(CCCF)C2)cc1` [Example 238, 9-(4-((3-fluoro-1-(3-fluoropropyl)azetidin-3-yl)methyl)phenyl)-8-(2-(trifluoromethyl)phenyl)-6,7-dihydro-5H-benzo[7]annulene-3-carboxylic acid] the same measures were 81% and 1.2 nM.
The matching figures for `O=C([O-])c1ccc2c(c1)CCCC(c1cc(F)cc(C(F)F)c1)=C2c1ccc(CC2CN(CCCF)C2)cc1.[Na+]` [Example 251, sodium 8-(3-(difluoromethyl)-5-fluorophenyl)-9-(4-((1-(3-fluoropropyl)azetidin-3-yl)methyl)phenyl)-6,7-dihydro-5H-benzo[7]annulene-3-carboxylate]: 87% and 0.7 nM.
Turning to `O=C(O)c1ccc2c(c1)CCCC(c1ncc(Cl)cc1C(F)(F)F)=C2c1ccc(CC2CN(CCC(F)F)C2)cc1` [Example 291, 8-(5-chloro-3-(trifluoromethyl)pyridin-2-yl)-9-(4-((1-(3,3-difluoropropyl)azetidin-3-yl)methyl)phenyl)-6,7-dihydro-5H-benzo[7]annulene-3-carboxylic acid], the “% Degradation At 0.3 μM” value turned out to be 84%. In addition, the DC50 under setting [1] was determined as 0.8 nM.
Regarding `Cc1cc(CC2CN(CCCF)C2)ccc1C1=C(c2ccc(Cl)cc2Cl)CCCc2cc(C(=O)O)ccc21` [Example 240, 8-(2,4-dichlorophenyl)-9-(4-((1-(3-fluoropropyl)azetidin-3-yl)methyl)-2-methylphenyl)-6,7-dihydro-5H-benzo[7]annulene-3-carboxylic acid], the “% Degradation At 0.3 μM” value stood at 85%. In addition, under setting [1], the DC50 was 0.5 nM.
Turning to `Cc1c(Cl)cccc1C1=C(c2ccc(CC3CN(CCCF)C3)cc2)c2ccc(C(=O)O)cc2CCC1.Cl` [Example 212, 8-(3-chloro-2-methylphenyl)-9-(4-((1-(3-fluoropropyl)azetidin-3-yl)methyl)phenyl)-6,7-dihydro-5H-benzo[7]annulene-3-carboxylic acid hydrochloride], the “% Degradation At 0.3 μM” value is recorded as 87%. The IC50 (usually the concentration that gives 50% inhibition) under setting [1] amounted to 0.1 nM.
Regarding `Cc1ccc(C2=C(c3ccc(CC4CN(CCCF)C4)cc3)c3ccc(C(=O)O)cc3CCC2)c(F)c1.Cl` [Example 11, 8-(2-fluoro-4-methylphenyl)-9-(4-((1-(3-fluoropropyl)azetidin-3-yl)methyl)phenyl)-6,7-dihydro-5H-benzo[7]annulene-3-carboxylic acid], the “% Degradation At 0.3 μM” value was found to be 91%. Moreover, the DC50 under setting [1] came out at 0.4 nM.
Take `Cl.O=C(O)c1ccc2c(c1)CCCC(c1ccccc1)=C2c1ccc(CC2CN(CCCF)C2)cc1` [Example 1, 9-(4-((1-(3-Fluoropropyl)azetidin-3-yl)methyl)phenyl)-8-phenyl-6,7-dihydro-5H-benzo[7]annulene-3-carboxylic Acid Hydrochloride]: the “% Degradation At 0.3 μM” value is 83%. In addition, the DC50 under setting [1] amounted to 0.4 nM.
For `O=C(O)c1ccc2c(c1)CCCC(c1ccc(F)c(CC(F)(F)F)c1)=C2c1ccc(CC2CN(CCCF)C2)cc1` [Example 290, 8-(4-fluoro-3-(2,2,2-trifluoroethyl)phenyl)-9-(4-((1-(3-fluoropropyl)azetidin-3-yl)methyl)phenyl)-6,7-dihydro-5H-benzo[7]annulene-3-carboxylic acid] the same measures were 84% and 0.8 nM.
Consider `O=C(O)c1cc2c(cc1F)C(c1ccc(CC3CN(CCCF)C3)cc1)=C(c1ccc(Cl)cc1Cl)CCC2` [Example 206, 8-(2,4-dichlorophenyl)-2-fluoro-9-(4-((1-(3-fluoropropyl)azetidin-3-yl)methyl)phenyl)-6,7-dihydro-5H-benzo[7]annulene-3-carboxylic acid], for which the “% Degradation At 0.3 μM” value turned out to be 86%. Besides, under setting [1], the DC50 stood at 0.4 nM.
On to `CCC(CC)CC1=C(c2ccc(CC3CN(CCCF)C3)cc2)c2ccc(C(=O)O)cc2CCC1` [Example 231, 8-(2-Ethylbutyl)-9-(4-((1-(3-fluoropropyl)azetidin-3-yl)methyl)phenyl)-6,7-dihydro-5H-benzo[7]annulene-3-carboxylic Acid], for which the “% Degradation At 0.3 μM” value is on record as 83%. Besides, under setting [1], the DC50 was 0.3 nM.
For `CC1(C)CCC(C2=C(c3ccc(CC4CN(CCCF)C4)cc3)c3ccc(C(=O)O)cc3CCC2)CC1.Cl` [Example 13, 8-(4,4-dimethylcyclohexyl)-9-(4-((1-(3-fluoropropyl)azetidin-3-yl)methyl)phenyl)-6,7-dihydro-5H-benzo[7]annulene-3-carboxylic acid] the same measures were 85% and 0.3 nM.
